From PubChem BioAssay AID248 (DTP/NCI, 2004) come the findings set out here.

The subject of this assay is L1210 leukemia ip in BDF1 mice, survival T/C. Nature of the assay: NCI In Vivo Anticancer Drug Screen. Data for tumor model L1210 Leukemia (intraperitoneal) in B6D2F1 (BDF1) mice. The settings on record: endpoint: mean survival time, higher = longer survival. The gist of the method: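 Transplantable tumor model; survival measured in treated vs vehicle control mice. Value = treated/control.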

[1] abbreviates: dose: 100.0 mg/kg/injection, schedule: Q01DX001 (ip), vehicle: saline.
Where [2] appears, read: dose: 100.0 mg/kg/injection, schedule: Q04DX003 (ip), vehicle: Klucel (hydroxypropylcellulose) (HPC).
[3] abbreviates: dose: 200.0 mg/kg/injection, schedule: Q04DX003 (ip), vehicle: Klucel (hydroxypropylcellulose) (HPC).
[4] abbreviates: dose: 100.0 mg/kg/injection, schedule: Q01DX009 (ip), vehicle: saline with Tween-80.
Setting [5] is: dose: 100.0 mg/kg/injection, schedule: Q04DX003 (ip), vehicle: saline with Tween-80.
[6] abbreviates: dose: 200.0 mg/kg/injection, schedule: Q01DX009 (ip), vehicle: saline with Tween-80.
Where [7] appears, read: dose: 200.0 mg/kg/injection, schedule: Q04DX003 (ip), vehicle: saline with Tween-80.
[8] abbreviates: dose: 400.0 mg/kg/injection, schedule: Q01DX009 (ip), vehicle: saline with Tween-80.
[9] abbreviates: dose: 400.0 mg/kg/injection, schedule: Q04DX003 (ip), vehicle: saline with Tween-80.
The mark [10] stands for this setting: dose: 50.0 mg/kg/injection, schedule: Q01DX009 (ip), vehicle: saline with Tween-80.
The mark [11] stands for this setting: dose: 400.0 mg/kg/injection, schedule: Q04DX003 (ip), vehicle: Klucel (hydroxypropylcellulose) (HPC).
The mark [12] stands for this setting: dose: 100.0 mg/kg/injection, schedule: Q04DX002 (ip), vehicle: saline with Tween-80.
The mark [13] stands for this setting: dose: 200.0 mg/kg/injection, schedule: Q04DX002 (ip), vehicle: saline with Tween-80.
Setting [14] is: dose: 400.0 mg/kg/injection, schedule: Q04DX002 (ip), vehicle: saline with Tween-80.

Molecules are shown by their SMILES. Values joined by “and” are separate entries in the source; they are usually repeats but may differ in a detail not shown here. Equal values may be shown once. Toxic doses and inconclusive results are not listed.

With `CC(OCCC#N)C(C)OCCC#N` (stereo not drawn), the T/C runs as follows: (dose: 44.0 mg/kg/injection, schedule: Q01DX001 (ip), vehicle: saline) 93 % of control; (dose: 45.0 mg/kg/injection, schedule: Q01DX001 (ip), vehicle: saline) 102 % of control; (dose: 50.0 mg/kg/injection, schedule: Q01DX001 (ip), vehicle: saline) 98 % of control; (dose: 67.0 mg/kg/injection, schedule: Q01DX001 (ip), vehicle: saline) 96 % of control and 104 % of control; under setting [1], 98 % of control and 101 % of control (2×); (dose: 150.0 mg/kg/injection, schedule: Q01DX001 (ip), vehicle: saline) 101 % of control and 102 % of control. Moreover, the T/C is 98 % of control (dose: 200.0 mg/kg/injection, schedule: Q01DX001 (ip), vehicle: saline) and 98 % of control (dose: 400.0 mg/kg/injection, schedule: Q01DX001 (ip), vehicle: saline).
Regarding `N#Cc1cnc(N)nc1N`, the T/C is 113 % of control (dose: 50.0 mg/kg/injection, schedule: Q04DX003 (ip), vehicle: Klucel (hydroxypropylcellulose) (HPC)); 92 % of control (dose: 75.0 mg/kg/injection, schedule: Q01DX001 (ip), vehicle: carboxymethylcellulose (CMC)); 102 % of control (dose: 75.0 mg/kg/injection, schedule: Q01DX009 (ip), vehicle: Klucel (hydroxypropylcellulose) (HPC)); 97 % of control under setting [2]; 92 % of control (dose: 150.0 mg/kg/injection, schedule: Q01DX001 (ip), vehicle: carboxymethylcellulose (CMC)); 102 % of control (dose: 150.0 mg/kg/injection, schedule: Q01DX009 (ip), vehicle: Klucel (hydroxypropylcellulose) (HPC)). In addition, the T/C under setting [3] was 108 % of control.
For the compound `CN(Cc1cnc2nc(N)nc(N)c2n1)c1ccc(C(=O)NC(CCC(=O)O)C(=O)O)cc1[N+](=O)[O-]` (stereo not drawn), the T/C runs as follows: (dose: 2.5 mg/kg/injection, schedule: Q01DX009 (ip), vehicle: sodium bicarbonate) 155 % of control; (dose: 5.0 mg/kg/injection, schedule: Q01DX009 (ip), vehicle: sodium bicarbonate) 112 % of control; (dose: 10.0 mg/kg/injection, schedule: Q01DX009 (ip), vehicle: sodium bicarbonate) 90 % of control.
On to `CCOC(=O)c1cnc(SC)nc1NCc1ccco1`, for which the T/C was 95 % of control under setting [4]; 100 % of control under setting [5]; 97 % of control under setting [6]; 97 % of control under setting [7]; 106 % of control under setting [8]; 92 % of control under setting [9].
Regarding `c1cnc2c(c1)CCCC2`, the T/C is, setting by setting: under setting [10], 86 % of control; under setting [6], 86 % of control.
Consider `CSc1ccc(OC2CCCCC2OS(C)(=O)=O)cc1` (stereo not drawn), for which the T/C was 102 % of control (dose: 100.0 mg/kg/injection, schedule: Q01DX001 (ip), vehicle: Klucel (hydroxypropylcellulose) (HPC)); 98 % of control (dose: 100.0 mg/kg/injection, schedule: Q01DX009 (ip), vehicle: Klucel (hydroxypropylcellulose) (HPC)); 107 % of control under setting [2]; 102 % of control (dose: 200.0 mg/kg/injection, schedule: Q01DX001 (ip), vehicle: Klucel (hydroxypropylcellulose) (HPC)); 98 % of control (dose: 200.0 mg/kg/injection, schedule: Q01DX009 (ip), vehicle: Klucel (hydroxypropylcellulose) (HPC)); 91 % of control under setting [3]. The T/C (dose: 400.0 mg/kg/injection, schedule: Q01DX001 (ip), vehicle: Klucel (hydroxypropylcellulose) (HPC)) was 94 % of control; the T/C (dose: 400.0 mg/kg/injection, schedule: Q01DX009 (ip), vehicle: Klucel (hydroxypropylcellulose) (HPC)) is 96 % of control; the T/C under setting [11] was 96 % of control.
With `C(=C\c1ccccc1)/C=N/N=C/C=C/c1ccccc1`, the T/C was 105 % of control (dose: 100.0 mg/kg/injection, schedule: Q01DX001 (ip), vehicle: other); 94 % of control under setting [4]; 100 % of control (dose: 100.0 mg/kg/injection, schedule: Q04DX002 (ip), vehicle: Klucel (hydroxypropylcellulose) (HPC)); 90 % of control under setting [5]; 97 % of control (dose: 200.0 mg/kg/injection, schedule: Q01DX001 (ip), vehicle: other); 90 % of control under setting [6]. The T/C was 96 % of control (dose: 200.0 mg/kg/injection, schedule: Q04DX002 (ip), vehicle: Klucel (hydroxypropylcellulose) (HPC)); 89 % of control under setting [7]; 94 % of control (dose: 400.0 mg/kg/injection, schedule: Q01DX001 (ip), vehicle: other); 94 % of control under setting [8]; 100 % of control (dose: 400.0 mg/kg/injection, schedule: Q04DX002 (ip), vehicle: Klucel (hydroxypropylcellulose) (HPC)); 92 % of control under setting [9].
For the compound `CCOC(=O)Nc1cc(NC(C)CCCN(CC)CC)c2ncc(-c3ccc(Cl)c(Cl)c3)nc2n1` (stereo not drawn) (tested in a mixture with another compound), the T/C was 99 % of control (dose: 6.25 mg/kg/injection, schedule: Q01DX001 (ip), vehicle: saline); 91 % of control (dose: 6.25 mg/kg/injection, schedule: Q01DX009 (ip), vehicle: saline); 101 % of control (dose: 12.5 mg/kg/injection, schedule: Q01DX001 (ip), vehicle: saline); 95 % of control (dose: 12.5 mg/kg/injection, schedule: Q01DX009 (ip), vehicle: saline); 89 % of control (dose: 25.0 mg/kg/injection, schedule: Q01DX001 (ip), vehicle: saline); 106 % of control (dose: 25.0 mg/kg/injection, schedule: Q01DX009 (ip), vehicle: saline). Besides, the T/C under setting [1] is 103 % of control.
Consider `C=CCOC(=O)COCC(=O)OCC=C`, for which the T/C runs as follows: (dose: 100.0 mg/kg/injection, schedule: Q04DX003 (ip), vehicle: saline) 97 % of control; (dose: 200.0 mg/kg/injection, schedule: Q04DX003 (ip), vehicle: saline) 88 % of control.
For `Cc1ccc(NC(=O)Oc2ccc(Br)cc2Br)c(Cl)c1`, the T/C by setting is: (dose: 25.0 mg/kg/injection, schedule: Q01DX009 (ip), vehicle: saline with Tween-80) 104 % of control and 106 % of control; under setting [10], 101 % of control and 105 % of control; under setting [12], 101 % of control and 107 % of control; under setting [5], 103 % of control; under setting [13], 97 % of control and 101 % of control; under setting [7], 113 % of control. Further, the T/C was 103 % of control and 111 % of control under setting [14]; 103 % of control under setting [9].
On to `CCCCCCCCCCCCCCCCCC1=Nc2cc(C)c(C)cc2NC(=O)C1`, for which the T/C runs as follows: (dose: 100.0 mg/kg/injection, schedule: Q01DX001 (ip), vehicle: carboxymethylcellulose (CMC)) 93 % of control; (dose: 200.0 mg/kg/injection, schedule: Q01DX001 (ip), vehicle: carboxymethylcellulose (CMC)) 88 % of control; (dose: 400.0 mg/kg/injection, schedule: Q01DX001 (ip), vehicle: carboxymethylcellulose (CMC)) 86 % of control.
Take `CC(C#N)CC12CCCCC1CC/C(=C\c1ccccc1)C2=O` (stereo not drawn): the T/C under setting [2] is 102 % of control, the T/C under setting [3] was 96 % of control and the T/C under setting [11] was 96 % of control.
For `NCC(=O)N/C(=C/c1ccccc1)C(=O)NCC(=O)O`, the T/C runs as follows: under setting [12], 97 % of control; under setting [13], 97 % of control; under setting [14], 97 % of control.
